# Results published in patent publication US11319311B2, “Crystalline forms of Actinomycin D for treatment of cancer” (TRANSGENEX NANOBIOTECH, INC., priority 2018, dated 2022).
# Like-named read-outs stand apart in the source and are kept apart here.
# Columns and labels:
# [1] = Accelerated stability studies (PXRD physical form stability); assay type: physicochemical; conditions: accelerated conditions 75% humidity and 40° C., one year, by PXRD
# Protocol: Stability studies of the DACT novel forms were conducted using accelerated conditions (75% humidity and 40° C.) of which are obvious to the artisan in the field, for more than one year. […] Selected data of the novel complexes of DACT:methylparaben, propylparaben and diphenic acid proves this point.
# [2] = system: human sarcoma cell line SK-ES-1; test: Tumor sphere formation assay; assay type: cell-based
# Source text: Cancer stem cells (CSCs) are defined as a small subset of cells within a tumor with the ability to self-renew and often drive tumor progression and recurrence after chemotherapy treatment (Xiaochen Zhou, et al. 2015. A Reliable Parameter to Standardize the Scoring of Stem Cell Spheres. PLOS One 10(5); e0127348). It is important to study the responses of cancer stem cells or the tumors treated with the new molecular complexes. We have assessed cancer stem cells (CSCs) growth using tumor sphere formation assay, which involves culturing cancer cells in low attachment plates in serum free media. Sphere size and diameter was measured using Image) software and statistical analysis was performed using Graph Pad Prism Software.
# The stem cell culture medium is prepared for 500 ml (250 ml of Dulbecco's Modified Eagle Medium (DMEM) (ATCC® 30-2002) plus 250 ml of F-12K medium (ATCC® 30-2004)) using 20 ng/ml epidermal growth factor, 10 ng/ml basic fibroblast growth factor, 5 μg/ml insulin and 0.4% Bovine Serum Albumin. All preparation methods known to the person skilled in the art.
# The cancer cell line used in this study was human sarcoma cell line SK-ES-1. The cells were seeded in a density of 200 per well per 200 μl in a 96-well Ultra-Low Attachment plate (Corning, Cat #3474, USA), this plate is specially treated for stem cell growth or tumor culture. On the day 1 of seeding, 100 μl of cell solution was added into the plate. […]
# On the day 6 of seeding, 10 μl of NucBlue Live Cell Stain ReadyProbes (Invitrogen Cat #R37605, USA) were added into each well for staining to visualize the live cells under the blue fluorescent light. […] Then the plate was brought to the Keyence imaging device (Keyence America, All-in-One Fluorescence Microscope BZ-X800, USA) for image scanning. […]
# The sum of sphere image area of every individual sphere, with diameter over 50 μm, in each well was calculated. […] The sphere image area was calculated based on the sum area of spheres with diameter over 50 μm in each treatment well, and significance was declared at P<0.05 for the bars indicated by *, and P<0.001 by **. […]
# SK-Mel-5 = test: Monolayer cell culture IC50 (CellTiter-Glo viability), SK-Mel-5; assay type: cell-based; conditions: Skin, SK-Mel-5, monolayer, 72 hours treatment, average of three replications
# Protocol: Cancer cell lines listed in Table 1 were subjected for testing anti-cancer potency or the half maximal inhibitory concentration (IC50) of the D-Actinomycin (DACT) molecular complexes.
# The SK-ES-1, U-2 OS, and SAOS-2 cells were cultured in a growth medium that is ATCC-formulated McCoy's 5a Medium Modified, Catalog No. 30-2007. The PC-3, PANC-1, SK-Mel-5, A549, H460, and H1299 were cultured in a growth medium that is ATCC-formulated Dulbecco's Modified Eagle's Medium (DMEM), Catalog No. 30-2002. The cells were seeded on 96-well microtiter plates with 3500 cells per well and cultured in an incubator (Model 3120, Thermo Scientific, USA) with a constant temperature at 37° C. and 5% carbon dioxide (CO2) gas for 24 hours.
# The new DACT-molecular complexes were made into a series with concentration of 200 nM to 40 nM, 8 nM, 1.6 nM, 0.32 nM, and 0.064 nM. 100 μl of each solution was then added into each well to bring out the final concentration of the drug treatment at 100 nM, 20 nM, 4 nM, 0.8 nM, 0.16 nM, or 0.032 nM, respectively.
# The treated cells in the 96 well plate was then further cultured at the same conditions for 72 hours and then subjected for a final cell viability measurement. The measurement used a homogeneous method to determine the number of metabolically active cells presented in each of treatments. A testing reagent for the measurement is a mixture solution of the CellTiter-Glo® 2.0 reagent (CTG, Promega Cat #G9243, USA) and growth medium in 1:1 ratio in this respect.
# The 96-well plate with the new molecular complex treated cells was taken out from incubator after the 72 hours of incubation, and the treatment solution in each well was removed using a multichannel pipette, and 100 μl of the testing reagent were added into each well. The plate was then placed on a plate shaker for 15 min. The plate was covered with a piece of aluminum foil to protect the CTG luminescence during the shaking time.
# Then 90 μl of the 100 μl testing reagent were transferred into an opaque-walled 96-well plate for the CTG luminescence reading on a plate reader (SynergyH4 Hybrid Reader, Biotek, USA). The luminescence intensity of each treatment was positively correlated with the number of cells survived during the treatments.
# All the treatment data was normalized by comparing with the control samples that had only growth medium without any molecular complexes. The half maximal inhibitory concentration (IC50) data was calculated using the nonlinear regression model and dose-responses (inhibition) curve built in the software. Each of treatments was performed in three replications each time and repeated three times for validation. The IC50 average […] (Avg) and standard deviation (STDV) were calculated based on the three replications.
smiles,measurement,setting,value
CCCOC(=O)c1ccc(O)cc1.Cc1c2oc3c(C)ccc(C(=O)NC4C(=O)NC(C(C)C)C(=O)N5CCCC5C(=O)N(C)CC(=O)N(C)C(C(C)C)C(=O)OC4C)c3nc-2c(C(=O)NC2C(=O)NC(C(C)C)C(=O)N3CCCC3C(=O)N(C)CC(=O)N(C)C(C(C)C)C(=O)OC2C)c(N)c1=O (stereo not shown) [DACT-propylparaben],physical form stability,[1],stable
same,sphere area,"[2]; SK-ES-1 spheres with diameter over 50 μm, day 6 of seeding, compared with pure parent molecule DACT",noticeable reduction in sphere area
same,tumor spheres size (SSS),[2]; compared with that of the parent molecule,reduced tumor spheres size (SSS)
same,tumor sphere formation efficiency (SFE),[2]; compared with the parent molecule,reduced tumor sphere formation efficiency (SFE)
same,IC50,"SK-Mel-5; Test I, read-out: IC50 Test (I) Avg",0.39 nM
same,IC50,"SK-Mel-5; Test II, read-out: IC50 Test (II) Avg",0.27 nM
same,IC50,"SK-Mel-5; Test III, read-out: IC50 Test (III) Avg",2.59 nM
